Reference: patent publication US20250214960A1, “COMPOUNDS HAVING ACTIVITY OF DEGRADING GSPT1 AND APPLICATION THEREOF” (SHANGHAI MEIZER PHARMACEUTICALS CO., LTD., priority 2021, published 2025)
Where two headings read alike, the source gives them in different places.

Target: T1, GSPT1 protein (Homo sapiens, UniProt P15170+Q96SW2)
T1 construct: endogenous in cells; host or cells: Jeko-1
Assay: Western blot detection of degradation activity of GSPT1 protein in Jeko-1 cells
Format: cell-based
Conditions: for inhibition at 0.1 µM / inhibition at 10 µM / inhibition at 0.01 µM / inhibition at 1 µM: JeKo-1, 24 h, read-out: GSPT1 degradation rate (%)
Protocol: Test Example 1: Western Blot Detection of Degradation Activity of GSPT1 Protein by the Compounds
Cell line: Jeko-1 cell line was cultured with an RPMI1640 media containing 20% fetal bovine serum in an incubator at 37° C., 5% CO2, and saturated humidity.
DMSO control group and test compound (concentration shown in the table below) were set up, after processing for 24 hours, the cells were collected, pre-cooled cell lysate was added and left on ice for 10 minutes. The total protein of the cells was extracted, and the protein concentration was measured and quantified using the BCA method. Routine gel preparation, sample loading, electrophoresis were conducted, then the membrane was transferred, and sealed, wherein the primary antibody was diluted with a blocking solution at 1:500-5000. The membrane was immersed in the diluted primary antibody and incubated overnight at 4° C. After rinsing, the secondary antibody was diluted with a sealing solution at 1:10000-20000, the membrane was immersed in the diluted secondary antibody, and incubated at room temperature for 45 minutes. After rinsing, the results were tested on ODYSSEY (Li-COR). GAPDH was used as an internal reference control.
Image J software was used to perform gray level analysis on each band and the degradation rate of GSPT1 protein by the compounds was calculated.

T1 sequence (P15170 whole entry): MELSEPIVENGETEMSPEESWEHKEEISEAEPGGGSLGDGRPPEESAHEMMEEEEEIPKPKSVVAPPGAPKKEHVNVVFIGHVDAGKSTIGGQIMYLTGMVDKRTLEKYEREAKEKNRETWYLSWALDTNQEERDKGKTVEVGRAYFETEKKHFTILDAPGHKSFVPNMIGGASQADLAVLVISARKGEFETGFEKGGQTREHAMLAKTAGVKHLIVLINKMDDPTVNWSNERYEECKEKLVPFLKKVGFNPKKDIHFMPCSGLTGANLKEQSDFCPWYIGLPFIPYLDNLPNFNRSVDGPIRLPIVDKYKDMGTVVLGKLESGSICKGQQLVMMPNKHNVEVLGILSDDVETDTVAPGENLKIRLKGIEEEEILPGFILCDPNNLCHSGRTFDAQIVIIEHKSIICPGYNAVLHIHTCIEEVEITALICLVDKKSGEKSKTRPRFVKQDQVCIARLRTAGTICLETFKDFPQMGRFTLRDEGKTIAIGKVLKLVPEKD
T1 sequence (Q96SW2 whole entry): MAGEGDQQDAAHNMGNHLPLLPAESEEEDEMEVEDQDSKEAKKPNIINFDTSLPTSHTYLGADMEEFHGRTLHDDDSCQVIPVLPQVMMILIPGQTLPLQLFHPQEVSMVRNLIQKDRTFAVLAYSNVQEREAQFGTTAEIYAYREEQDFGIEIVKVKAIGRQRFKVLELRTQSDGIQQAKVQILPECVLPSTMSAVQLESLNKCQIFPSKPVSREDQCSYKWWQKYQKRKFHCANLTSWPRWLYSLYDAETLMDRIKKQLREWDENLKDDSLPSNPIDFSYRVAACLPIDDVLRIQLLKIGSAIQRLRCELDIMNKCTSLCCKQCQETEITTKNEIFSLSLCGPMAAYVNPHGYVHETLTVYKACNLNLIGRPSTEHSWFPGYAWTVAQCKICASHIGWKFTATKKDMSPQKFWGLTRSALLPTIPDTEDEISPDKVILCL
T1 sequence (Q16531 whole entry partner): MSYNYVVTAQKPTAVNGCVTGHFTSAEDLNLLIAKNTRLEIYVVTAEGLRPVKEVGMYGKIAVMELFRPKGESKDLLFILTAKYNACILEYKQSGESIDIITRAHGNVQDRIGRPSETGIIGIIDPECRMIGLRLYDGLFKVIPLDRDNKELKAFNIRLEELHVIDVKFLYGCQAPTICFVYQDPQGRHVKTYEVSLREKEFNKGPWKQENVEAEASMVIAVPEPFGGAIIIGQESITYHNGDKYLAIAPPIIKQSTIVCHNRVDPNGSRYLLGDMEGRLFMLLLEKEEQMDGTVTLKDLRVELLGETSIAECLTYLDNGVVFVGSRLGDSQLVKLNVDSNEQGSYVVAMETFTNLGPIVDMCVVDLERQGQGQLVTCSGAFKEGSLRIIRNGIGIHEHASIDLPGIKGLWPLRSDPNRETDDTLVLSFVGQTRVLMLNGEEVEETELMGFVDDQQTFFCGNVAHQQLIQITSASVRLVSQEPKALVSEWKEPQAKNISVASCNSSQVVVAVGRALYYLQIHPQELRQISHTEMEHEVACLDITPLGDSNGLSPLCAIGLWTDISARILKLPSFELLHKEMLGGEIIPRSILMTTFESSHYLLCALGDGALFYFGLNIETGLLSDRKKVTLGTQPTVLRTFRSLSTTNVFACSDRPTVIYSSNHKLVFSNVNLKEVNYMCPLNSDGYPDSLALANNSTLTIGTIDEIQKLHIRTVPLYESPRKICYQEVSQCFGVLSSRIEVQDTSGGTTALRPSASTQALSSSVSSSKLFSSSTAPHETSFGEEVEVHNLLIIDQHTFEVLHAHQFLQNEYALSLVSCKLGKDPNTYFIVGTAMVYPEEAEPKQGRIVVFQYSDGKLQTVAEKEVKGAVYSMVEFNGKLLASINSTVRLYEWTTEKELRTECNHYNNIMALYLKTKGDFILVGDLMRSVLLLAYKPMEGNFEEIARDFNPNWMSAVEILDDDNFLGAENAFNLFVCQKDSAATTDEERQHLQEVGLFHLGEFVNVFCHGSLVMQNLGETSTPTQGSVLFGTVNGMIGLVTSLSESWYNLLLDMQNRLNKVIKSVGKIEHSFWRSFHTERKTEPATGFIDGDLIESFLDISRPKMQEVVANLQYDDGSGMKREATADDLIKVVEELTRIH

inhibition at 0.1 µM (100 nM, Jeko-1 cells, 24 hours) [%] | inhibition at 10 µM (10 μM, Jeko-1 cells, 24 hours) [%] | SMILES | also measured
18 | 71 | CC(C)(C)NC(=O)NCC(C(=O)NCc1ccc2c(c1)CN(C1CCC(=O)NC1=O)C2=O)c1ccccc1 (centres unmarked) [Compound 5-12] | 
28 | 93 | CC(C)(C)C(=O)NCC(C(=O)NCc1ccc2c(c1)CN(C1CCC(=O)NC1=O)C2=O)c1ccccc1 (centres unmarked) [Compound 5-23, N-((2-(2,6-dioxypiperidin-3-yl)-1-oxoisoidoline-5-yl)methyl)-2-phenyl-3-terpentylaminopropionamide] | 
58 | 96 | O=C1CCC(N2Cc3cc(CNC(=O)C(CNC(=O)C4CCCCC4)c4ccccc4)ccc3C2=O)C(=O)N1 (centres unmarked) [Compound 5-25] | 
70 | 97 | O=C1CCC(N2Cc3cc(CNC(=O)C(NC(=O)CC4CCCC4)c4ccccc4)ccc3C2=O)C(=O)N1 (centres unmarked) [Compound 5-29, 2-(2-cyclopentylacetamido)-N-((2-(2,6-dioxopyridin-3-yl)-1-oxoisoidoline-5-yl)methyl)-2-phenylacetamide] | 
59 | 93 | O=C1CCC(N2Cc3cc(CNC(=O)C(NC(=O)C4CCCC4)c4ccccc4)ccc3C2=O)C(=O)N1 (centres unmarked) [Compound 5-30] | 
11.6 | 87.9 | CC(C)(C)OC(=O)N[C@@H](CC(N)=O)C(=O)NCc1ccc2c(c1)CN(C1CCC(=O)NC1=O)C2=O (stereo partly drawn) [Compound 5-43, Tert butyl ((2S)-4-amino-1-((2-(2,6-dioxypiperidin-3-yl)-1-oxoisoindolin-5-yl)methyl)amino)-1,4-dioxobutane-2-yl) carbamate] | 
38.1 | 92.7 | O=C1CCC(N2Cc3cc(CNC(=O)[C@@H](CNC(=O)C4CCCC4)c4ccc(Cl)cc4)ccc3C2=O)C(=O)N1 (some centres unmarked) [Compound 5-52] | 
26.1 | 91.2 | O=C1CCC(N2Cc3cc(CNC(=O)C(CNC(=O)C4CCCC4)c4ccccc4)ccc3C2=O)C(=O)N1 [Compound 5-53, N-((2R)-3-((2-(2,6-dioxypiperidin-3-yl)-1-oxoisoindolin-5-yl)methyl)amino)-3-oxo-2-phen ylpropyl) cyclopentyl Formamide] | 
41.3 | 87.1 | O=C1CCC(N2Cc3cc(CNC(=O)[C@H](CC4CCCCC4)NC(=O)C4CCCC4)ccc3C2=O)C(=O)N1 (some centres unmarked) [Compound 5-54] | 
85.1 | 93.9 | CC(C)(C)OC(=O)NCC(C(=O)NCc1ccc2c(c1)CN(C1CCC(=O)NC1=O)C2=O)C1CCCCC1 (centres unmarked) [Compound 5-55, Tert butyl (2-cyclohexyl-3-((2-(2,6-dioxypiperidin-3-yl)-1-oxoisoindoline-5-yl)methyl)amino)-3-oxopropyl) carbamate] | 
36 | 93.7 | O=C1CCC(N2Cc3cc(CNC(=O)C(CNC(=O)C4CCCC4)C4CCCCC4)ccc3C2=O)C(=O)N1 (centres unmarked) [Compound 5-59] | 

The remaining lines, values behind:

SMILES | inhibition at 0.1 µM (100 nM, Jeko-1 cells, 24 hours) [%] | inhibition at 10 µM (10 μM, Jeko-1 cells, 24 hours) [%] | also measured
N[C@H](C(=O)NCc1ccc2c(c1)CN(C1CCC(=O)NC1=O)C2=O)c1ccccc1 (some centres unmarked) [Compound 4-87-2] | 21 | 15 | 
CC(C)(C)OC(=O)N[C@@H](C(=O)NCc1ccc2c(c1)CN(C1CCC(=O)NC1=O)C2=O)c1ccccc1 (stereo partly drawn) [Compound 4-108, Tert butyl ((1R)-2-((2-(2-(2,6-Dioxopiperidin-3-yl)-1-oxoisoindolin-5-yl)methyl)amino)-2-oxo-1-phenylethyl) carbamate] |  |  | inhibition at 0.01 µM (10 nM, Jeko-1 cells, 24 hours): 10%; inhibition at 1 µM (1 μM, Jeko-1 cells, 24 hours): 95%
CC(C)(C)OC(=O)NC(CC(=O)NCc1ccc2c(c1)CN(C1CCC(=O)NC1=O)C2=O)c1ccccc1 (centres unmarked) [Compound 4-130, Tert butyl (3-((2-(2,6-dioxypiperidin-3-yl)-1-oxoisoindolin-5-yl)methyl)amino)-3-oxo-1-phenylpropyl) carbamate] | 51 | 94 | 
CC(C)(C)OC(=O)NCC(C(=O)NCc1ccc2c(c1)CN(C1CCC(=O)NC1=O)C2=O)c1ccccc1 (centres unmarked) [Compound 4-131] | 96 | 97 | 
CC(C)(C)OC(=O)N[C@H](Cc1ccccc1)C(=O)NCc1ccc2c(c1)CN(C1CCC(=O)NC1=O)C2=O (stereo partly drawn) [Compound 4-132, Tert butyl ((2R)-1-((2-(2,6-dioxypiperidin-3-yl)-1-oxoisoindoline-5-yl)methyl)amino)-1-oxo-3-phenylpro p-2-yl) carbamate] | 93 | 96 | 
CCOC(=O)N[C@H](C(=O)NCc1ccc2c(c1)CN(C1CCC(=O)NC1=O)C2=O)c1ccccc1 (stereo partly drawn) [Compound 4-138, Ethyl ((1S)-2-((2-(2,6-dioxypiperidin-3-yl)-1-oxoisoindoline-5-yl)methyl)amino)-2-oxo-1-phenylethyl) carbamate] | 31 | 88 | 
O=C1CCC(N2Cc3cc(CNC(=O)[C@@H](NC(=O)OCc4ccccc4)c4ccccc4)ccc3C2=O)C(=O)N1 (stereo partly drawn) [Compound 4-139, Benzyl ((1S)-2-((2-(2,6-dioxypiperidin-3-yl)-1-oxoisoindoline-5-yl)methyl)amino)-2-oxo-1-phenylethyl) carbamate] | 98 | 97 | 
CC(C)OC(=O)N[C@H](C(=O)NCc1ccc2c(c1)CN(C1CCC(=O)NC1=O)C2=O)c1ccccc1 (stereo partly drawn) [Compound 4-160, Isopropyl ((1S)-2-((2-(2,6-dioxypiperidin-3-yl)-1-oxoisoindoline-5-yl)methyl)amino)-2-oxo-1-phenylethy 1) carbamate] |  |  | inhibition at 0.1 µM: 96%; inhibition at 10 µM: 89%
CC(C)(C)OC(=O)NC[C@@H](Cc1ccccc1)C(=O)NCc1ccc2c(c1)CN(C1CCC(=O)NC1=O)C2=O (stereo partly drawn) [Compound 4-171, Tert butyl ((2R)-2-benzyl-3-((2-(2,6-dioxypiperidin-3-yl)-1-oxoisoindolin-5-yl)methyl)amino)-3-oxopropyl) carbamate] | 29 | 88 | 
CC(C)[C@@H]1CC[C@@H](C)C[C@H]1OC(=O)N[C@H](C(=O)NCc1ccc2c(c1)CN(C1CCC(=O)NC1=O)C2=O)c1ccccc1 (some centres unmarked) [Compound 4-175b] |  |  | inhibition at 0.01 µM: 98%; inhibition at 1 µM: 99%
Cc1ccc(S(=O)(=O)N[C@H](C(=O)NCc2ccc3c(c2)CN(C2CCC(=O)NC2=O)C3=O)c2ccccc2)cc1 (some centres unmarked) [Compound 4-176] | 35 | 53 | 
O=C1CCC(N2Cc3cc(CNC(=O)[C@@H](NC(=O)NCc4ccccc4)c4ccccc4)ccc3C2=O)C(=O)N1 (stereo partly drawn) [Compound 4-184, (2S)-2-(3-benzylurea)-N-((2-(2,6-dioxopyridin-3-yl)-1-oxoisoidoline-5-yl)methyl)-2-phenylacetamide] | 21 | 85 | 
CC(C)(C)NC(=O)CNC(Cc1ccccc1)C(=O)NCc1ccc2c(c1)CN(C1CCC(=O)NC1=O)C2=O (centres unmarked) [Compound 4-186] | 26 | 56 | 
CC(C)(C)NC(=O)NCC(Cc1ccccc1)C(=O)NCc1ccc2c(c1)CN(C1CCC(=O)NC1=O)C2=O (centres unmarked) [Compound 4-188, 2-Benzyl-3-(3-(tertbutyl)urea)-N-((2-(2,6-dioxypiperidin-3-yl)-1-oxoisoindoline-5-yl)methyl) propionamide] | 32 | 63 | 
COC(C(=O)N[C@H](C(=O)NCc1ccc2c(c1)CN(C1CCC(=O)NC1=O)C2=O)c1ccccc1)c1ccccc1 (some centres unmarked) [Compound 4-199] | 14 | 81 | 
O=C1CCC(N2Cc3cc(CNC(=O)C(CNC(=O)OC4CCCC4)c4ccccc4)ccc3C2=O)C(=O)N1 (centres unmarked) [Compound 5-3, Cyclopentyl (3-((2-(2,6-dioxypiperidin-3-yl)-1-oxoisoindolin-5-yl)methyl)amino)-3-oxo-2-phenylpropyl) carbamate] |  |  | inhibition at 0.1 µM: 76%; inhibition at 10 µM: 49%
O=C1CCC(N2Cc3cc(CNC(=O)C(CNC(=O)C4CCCC4)c4ccccc4)ccc3C2=O)C(=O)N1 (centres unmarked) [Compound 5-9] |  |  | GSPT1 degradation rate (%) (100 nM, Jeko-1 cells, 24 hours): 45%; GSPT1 degradation rate (%) (10 μM, Jeko-1 cells, 24 hours): 93%
O=C1CCC(N2Cc3cc(CNC(=O)C(CNC(=O)Nc4ccccc4)c4ccccc4)ccc3C2=O)C(=O)N1 (centres unmarked) [Compound 5-11, N-((2-(2,6-dioxypiperidin-3-yl)-1-oxoisoindolin-5-yl)methyl)-2-phenyl-3-(3-phenylurea) propionamide] |  |  | inhibition at 0.1 µM: 17%; inhibition at 10 µM: 77%
O=C1CCC(N2Cc3cc(CNC(=O)C(CNC(=O)c4ccccc4)c4ccccc4)ccc3C2=O)C(=O)N1 (centres unmarked) [Compound 5-26] |  |  | inhibition at 0.1 µM: 33%; inhibition at 10 µM: 98%
CC(C)OC(=O)N[C@@H](Cc1ccccc1)C(=O)NCc1ccc2c(c1)CN(C1CCC(=O)NC1=O)C2=O (stereo partly drawn) [Compound 5-39, Isopropyl ((2S)-1-(2-(2,6-dioxypiperidin-3-yl)-1-oxoisoindoline-5-yl)methyl)amino)-1-oxo-3-phenylprop-2-yl) carbamate] |  |  | inhibition at 0.1 µM: 65.2%; inhibition at 10 µM: 85.8%
